Columns and labels:
[1] = molecular target: T1, mouse TGR5 receptor (Mus musculus, UniProt Q80SS6); test: Mouse TGR5 HTRF cAMP production assay (HEK293-EBNA cells, Cisbio cAMP HiRange kit); format: cell-based; settings: HEK293-EBNA cells overexpressing mouse TGR5, HTRF cAMP assay
T1 construct: host or cells: HEK293-EBNA (293 c18, ATCC CRL10852)
T1 sequence (Q80SS6 1-329): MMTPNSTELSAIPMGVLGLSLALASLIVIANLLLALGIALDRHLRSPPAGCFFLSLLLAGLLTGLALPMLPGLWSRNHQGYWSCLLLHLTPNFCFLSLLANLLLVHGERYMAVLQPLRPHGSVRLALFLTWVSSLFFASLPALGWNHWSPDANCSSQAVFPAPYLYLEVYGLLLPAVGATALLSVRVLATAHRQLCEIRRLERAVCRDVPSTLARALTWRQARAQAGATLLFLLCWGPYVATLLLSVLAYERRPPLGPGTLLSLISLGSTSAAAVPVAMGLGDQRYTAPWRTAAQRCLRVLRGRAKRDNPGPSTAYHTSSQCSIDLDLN
Method in brief: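 cAMP accumulation was read by competitive HTRF after 1 h room-temperature compound treatment, with a further 1 h conjugate incubation. Cells were mouse TGR5-overexpressing HEK293-EBNA in serum-free DMEM plus 500 μM IBMX. Compounds ran as 12-point half-log series in duplicate, and EC50 values were reported.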

[2] = molecular target: T2, human TGR5 receptor (Homo sapiens, UniProt Q8TDU6); test: Human TGR5 cAMP production assay (hTGR5-CHO cells, DiscoveRx cAMP XS+ kit); format: cell-based; settings: luminescent cAMP assay, read-out: Human TGR5 Lum. cAMP Activity (EC50)
T2 construct: host or cells: CHO-K1 (hTGR5-CHO)
T2 sequence (Q8TDU6 1-330): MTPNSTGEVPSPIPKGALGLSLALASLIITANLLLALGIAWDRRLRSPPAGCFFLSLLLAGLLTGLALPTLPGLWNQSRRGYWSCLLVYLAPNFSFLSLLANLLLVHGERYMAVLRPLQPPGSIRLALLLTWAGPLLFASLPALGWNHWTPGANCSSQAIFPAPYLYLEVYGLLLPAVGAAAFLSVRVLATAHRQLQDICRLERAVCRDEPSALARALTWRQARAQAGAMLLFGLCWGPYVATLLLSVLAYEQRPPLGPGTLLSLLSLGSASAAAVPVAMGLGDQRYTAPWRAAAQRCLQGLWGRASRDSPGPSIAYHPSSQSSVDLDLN
Method in brief: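 EC50 values come from luminescent enzyme-complementation cAMP detection, read after overnight incubation. Beforehand, hTGR5-expressing CHO-K1 cells with IBMX and anti-cAMP antibody were exposed 1 h at room temperature to serially diluted (half-log) compounds.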

| Compound | EC50 [1] [nM] | EC50 [2] [nM] |
| --- | --- | --- |
| CN(C)CCC1CCN(c2cc(N3CCC[C@H]3C(=O)NCCc3ccc(C(F)(F)F)cc3)nc(C(F)(F)F)n2)CC1 [Compound 5] | < 100 | < 100 |
| O=C(O)CCCC1CCN(c2cc(N3CCC[C@H]3C(=O)NCCc3ccc(C(F)(F)F)cc3)nc(C(F)(F)F)n2)CC1 [Compound 9] | < 100 | < 100 |
| N#Cc1ccc(CCNC(=O)[C@@H]2CCCN2c2cc(N3CCC(CCO)CC3)nc(C(F)(F)F)n2)cc1 [Compound 22] |  | < 100 |
| COCC1CCN(c2cc(N3CCC[C@H]3C(=O)NCCc3ccc(C#N)cc3)nc(C(F)(F)F)n2)CC1 [Compound 24] |  | < 100 |
| N#Cc1ccc(CCNC(=O)[C@@H]2CCCN2c2cc(N3CCC(CCC(=O)O)CC3)nc(C(F)(F)F)n2)cc1 [Compound 28] | < 100 | 100 to 999 |
| N#Cc1ccc(CCNC(=O)[C@@H]2CCCN2c2cc(N3CCC(CCCC(=O)O)CC3)nc(C(F)(F)F)n2)cc1 [Compound 29] | < 100 | < 100 |
| N#CCCN1CCN(c2cc(N3CCC[C@H]3C(=O)NCCc3ccc(C#N)cc3)nc(C(F)(F)F)n2)CC1 [Compound 32] | < 100 | < 100 |
| COc1cc(C(F)(F)F)ccc1CCNC(=O)[C@@H]1CCCN1c1cc(N2CCC(CCCC(=O)O)CC2)nc(C(F)(F)F)n1 [Compound 34] | < 100 | < 100 |
| N#Cc1ccc(CCNC(=O)[C@@H]2CCCN2c2cc(N3CCC(CCN)CC3)nc(C(F)(F)F)n2)cc1 [Compound 50, (S)-1-(6-(4-(2-aminoethyl)piperidin-1-yl)-2-(trifluoromethyl)pyrimidin-4-yl)-N-(4-cyanophenethyl)pyrrolidine-2-carboxamide] |  | < 100 |
| N#Cc1ccc(CCNC(=O)[C@@H]2CCCN2c2cc(N3CCC(CCC(=O)NCCS(=O)(=O)O)CC3)nc(C(F)(F)F)n2)cc1 [Compound 56, (S)-2-(3-(1-(6-(2-((4-cyanophenethyl)carbamoyl)pyrrolidin-1-yl)-2-(trifluoromethyl)pyrimidin-4-yl)piperidin-4-yl)propanamido)ethanesulfonic acid] | < 100 | < 100 |
| COc1cc(C(F)(F)F)ccc1CCNC(=O)[C@@H]1CCCN1c1cc(N2CCC(CCCC(=O)NCCS(=O)(=O)O)CC2)nc(C(F)(F)F)n1 [Compound 57, (S)-2-(4-(1-(6-(2-((2-methoxy-4-(trifluoromethyl)phenethyl)carbamoyl)-pyrrolidin-1-yl)-2-(trifluoromethyl)-pyrimidin-4-yl)piperidin-4-yl)butanamido)ethanesulfonic acid] | < 100 | < 100 |
| O=C(CCCC1CCN(c2cc(N3CCC[C@H]3C(=O)NCCc3ccc(C(F)(F)F)cc3)nc(C(F)(F)F)n2)CC1)NCCS(=O)(=O)O [Compound 58, (S)-2-(4-(1-(2-(trifluoromethyl)-6-(2-((4-(trifluoromethyl)phenethyl)-carbamoyl)-pyrrolidin-1-yl)-pyrimidin-4-yl)piperidin-4-yl)butanamido)ethanesulfonic acid] | < 100 | < 100 |
| NS(=O)(=O)CCNC(=O)CCCC1CCN(c2cc(N3CCC[C@H]3C(=O)NCCc3ccc(C(F)(F)F)cc3)nc(C(F)(F)F)n2)CC1 [Compound 59, (S)-1-(6-(4-(4-oxo-4-((2-sulfamoylethyl)amino)butyl)piperidin-1-yl)-2-(trifluoromethyl)pyrimidin-4-yl)-N-(4-(trifluoromethyl)phenethyl)-pyrrolidine-2-carboxamide] | < 100 | < 100 |
| O=C(CCCC1CCN(c2cc(N3CCC[C@H]3C(=O)NCCc3ccc(C(F)(F)F)cc3)nc(C(F)(F)F)n2)CC1)NCCCS(=O)(=O)O [Compound 60, (S)-3-(4-(1-(2-(trifluoromethyl)-6-(2-((4-(trifluoromethyl)phenethyl)carbamoyl)pyrrolidin-1-yl)pyrimidin-4-yl)piperidin-4-yl)butanamido)propane-1-sulfonic acid] | < 100 | < 100 |
| N#Cc1ccc(CCNC(=O)[C@@H]2CCCN2c2cc(N3CCC(CCCC(=O)NCCS(=O)(=O)O)CC3)nc(C(F)(F)F)n2)cc1 [Compound 61, (S)-2-(4-(1-(6-(2-((4-cyanophenethyl)carbamoyl)pyrrolidin-1-yl)-2-(trifluoromethyl)pyrimidin-4-yl)-piperidin-4-yl)butanamido)ethanesulfonic acid] | < 100 | < 100 |
| N#Cc1ccc(CCNC(=O)[C@@H]2CCCN2c2cc(N3CCC(CCCC(=O)NCCS(N)(=O)=O)CC3)nc(C(F)(F)F)n2)cc1 [Compound 62, (S)-N-(4-cyanophenethyl)-1-(6-(4-(4-oxo-4-((2-sulfamoylethyl)amino)butyl)piperidin-1-yl)-2-(trifluoromethyl)pyrimidin-4-yl)pyrrolidine-2-carboxamide] | < 100 | < 100 |
| N#Cc1ccc(CCNC(=O)[C@@H]2CCCN2c2cc(N3CCC(CCCC(=O)NCCCS(=O)(=O)O)CC3)nc(C(F)(F)F)n2)cc1 [Compound 63, (S)-3-(4-(1-(6-(2-((4-cyanophenethyl)carbamoyl)pyrrolidin-1-yl)-2-(trifluoromethyl)pyrimidin-4-yl)-piperidin-4-yl)butanamido)propane-1-sulfonic acid] | < 100 | < 100 |
| N#Cc1ccc(CCNC(=O)[C@@H]2CCCN2c2cc(N3CCC(CCCC(=O)NCC(=O)O)CC3)nc(C(F)(F)F)n2)cc1 [Compound 103, (S)-2-(4-(1-(6-(2-((4-cyanophenethyl)carbamoyl)pyrrolidin-1-yl)-2-(trifluoromethyl)pyrimidin-4-yl)piperidin-4-yl)butanamido)acetic acid] | < 100 | < 100 |
| N#Cc1ccc(CCNC(=O)[C@@H]2CCCN2c2cc(N3CCC(CCCC(=O)NCCC(=O)O)CC3)nc(C(F)(F)F)n2)cc1 [Compound 104, (S)-3-(4-(1-(6-(2-((4-cyanophenethyl)carbamoyl)pyrrolidin-1-yl)-2-(trifluoromethyl)pyrimidin-4-yl)-piperidin-4-yl)butanamido)-propanoic acid] | < 100 | < 100 |
| N#Cc1ccc(CCNC(=O)[C@@H]2CCCN2c2cc(N3CCC(CCNC(=O)NCCS(=O)(=O)NCC(=O)O)CC3)nc(C(F)(F)F)n2)cc1 [Compound 107] | < 100 | < 100 |
| N#Cc1ccc(CCNC(=O)[C@@H]2CCCN2c2cc(N3CCC(CCCC(=O)NCCC(=O)NC(CO)(CO)CO)CC3)nc(C(F)(F)F)n2)cc1 [Compound 109, (S)—N-(4-cyanophenethyl)-1-(6-(4-(4-((3-((1,3-dihydroxy-2-(hydroxymethyl)propan-2-yl)amino)-3-oxopropyl)amino)-4-oxobutyl)piperidin-1-yl)-2-(trifluoromethyl)-pyrimidin-4-yl)pyrrolidine-2-carboxamide] | < 100 | < 100 |
| N#Cc1ccc(CCNC(=O)[C@@H]2CCCN2c2cc(N3CCC(CCCC(=O)NCCNc4ncc(C(=O)NCCS(=O)(=O)O)cn4)CC3)nc(C(F)(F)F)n2)cc1 [Compound 112, (S)-2-(2-((2-(4-(1-(6-(2-((4-cyanophenethyl)carbamoyl)pyrrolidin-1-yl)-2-(trifluoromethyl)pyrimidin-4-yl)piperidin-4-yl)butanamido)ethyl)amino)-pyrimidine-5-carboxamido)ethanesulfonic acid] | < 100 | < 100 |
| N#Cc1ccc(CCNC(=O)[C@@H]2CCCN2c2cc(N3CCC(CCNC(=O)NCCC(=O)NCCS(=O)(=O)O)CC3)nc(C(F)(F)F)n2)cc1 [Compound 113, (S)-2-(3-(3-(2-(1-(6-(2-((4-cyanophenethyl)carbamoyl)pyrrolidin-1-yl)-2-(trifluromethyl)pyrimidin-4-yl)piperidin-4-yl)ethyl)ureido)-propanamido)-ethanesulfonic acid] | < 100 | < 100 |
| N#Cc1ccc(CCNC(=O)[C@@H]2CCN2c2cc(N3CCC(CO)CC3)nc(C(F)(F)F)n2)cc1 [Compound 219, (S)—N-(4-cyanophenethyl)-1-(6-(4-(hydroxymethyl)piperidin-1-yl)-2-(trifluoromethyl)pyrimidin-4-yl)azetidine-2-carboxamide] |  | < 100 |
| N#Cc1ccc(CCNC(=O)[C@@H]2CCCN(c3cc(N4CCC(CO)CC4)nc(C(F)(F)F)n3)C2)cc1 [Compound 308, (R)—N-(4-cyanophenethyl)-1-(6-(4-(hydroxymethyl)piperidin-1-yl)-2-(trifluoromethyl)pyrimidin-4-yl)piperidine-3-carboxamide] |  | < 100 |
